We go through seven molecules from PubChem BioAssay (NCI).

Each structure is given as a SMILES string. “And” between values parts separate entries of the source, which are not always exact repeats. Identical values can stand only once.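 How tested: cells in 96-well plates exposed to compound for 48 hours at five concentrations. GI50 marks 50% less growth. TGI: total growth inhibition.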 Where only a bound is given, the exact number is not on record here.

What all share (assay): NCI-60 cell line screen, 48 h
Assay [1] relates to BT-549 breast.
Assay [2] deals with HOP-62 NSCLC.
The subject of assay [3] is KM12 colon.
For assay [4], the system named is LOX IMVI melanoma.
Assay [5] has as its system OVCAR-4 ovarian.
In assay [6] the test system is OVCAR-5 ovarian.
Assay [7] deals with SF-268 CNS.
Assay [8] concerns SF-295 CNS.
Assay [9] concerns SK-MEL-5 melanoma.
For assay [10], the system named is TK-10 renal.

With `C=CCN1CC(=O)N2[C@@H](Cc3ccc(O)cc3F)C(=O)N(Cc3cccc(N4CC(N5CCN(CC)CC5)C4)n3)C[C@@H]2N1C(=O)NCc1ccccc1`, the GI50 in [1] was 0.111 µM; in assay [2] it was 0.0562 µM; in assay [3], 0.111 µM; in [4] it was 0.0339 µM; in assay [5] it was 0.0329 µM; in assay [6] it was 0.0354 µM. For the same molecule, the GI50 in assay [7] was 0.0348 µM; in assay [8], 0.0965 µM; in assay [9], 0.0703 µM; in assay [10] it was 0.16 µM. Also, the TGI in assay [1] is more than 54.1 µM; in [2], more than 100 µM; in [3] it was more than 100 µM; in assay [4], 0.584 µM; in assay [5], more than 100 µM; in assay [6], more than 100 µM. Also, the TGI is more than 100 µM in assay [7], 1.02 µM in assay [8], 0.33 µM in [9] and more than 100 µM in assay [10].

Regarding `Cc1cc(N=Nc2ccccc2C)ccc1N`, the TGI was 23.2 µM in assay [1]; 19.2 µM and 36.4 µM in assay [2]; 23.2 µM and 21.5 µM in [3]; 25 µM and 28.9 µM in assay [4]; 62.3 µM in assay [5]; 41.3 µM and 37.6 µM in [6]. The TGI in [7] was 33.6 µM; in assay [8], 25.2 µM and 31.3 µM; in assay [9] it was 29.2 µM and 27.4 µM; in assay [10] it was 49.3 µM and 72 µM. In addition, the GI50 in assay [2] was 15.2 µM; in assay [3] it was 7.37 µM; in assay [4] it was 13.9 µM; in [6], 15 µM; in [7] it was 4.36 µM; in assay [9], 14.1 µM. The GI50 in assay [10] was 15.5 µM.

In the case of `COC(=O)c1cncc(/C=C/c2c(C)cc(O)cc2C)c1`, the GI50 in assay [1] is more than 20.1 µM; in [2] it was 9.82 µM; in [3], 7.76 µM; in assay [4] it was 7.41 µM; in [5], 8.11 µM; in [6], more than 24.1 µM. Further, the GI50 is 14.1 µM in [7], more than 19.1 µM in [8], 6.78 µM in [9] and more than 25 µM in assay [10]. In addition, the TGI in assay [1] is more than 25 µM; in assay [2] it was more than 20.5 µM; in [3] it was 24.6 µM; in assay [4] it was more than 18 µM; in assay [5] it was more than 25 µM; in assay [6] it was more than 25 µM. The TGI in assay [7] is more than 25 µM; in [8] it was more than 25 µM; in assay [9], more than 16.9 µM; in assay [10] it was more than 25 µM.

For the molecule `COC(=O)[C@H]1CCCN1C(=O)[C@H]1CCCN1C(=O)[C@@H](Cc1c[nH]c2ccccc12)NC(=S)Nc1cc(C(F)(F)F)cc(C(F)(F)F)c1`, the GI50 in assay [1] was 2.47 µM; in assay [2] it was 2.01 µM; in [3] it was 1.88 µM; in assay [4], 1.65 µM; in [5], 2.86 µM; in [6], 1.78 µM. Also, the GI50 was 2 µM in assay [7], 1.67 µM in [8], 1.7 µM in [9] and 2.21 µM in assay [10]. In addition, the TGI in assay [1] stood at 5.59 µM; in assay [2] it was 3.83 µM; in [3] it was 3.92 µM; in assay [4], 3.05 µM; in [5], 12.9 µM; in assay [6], 3.54 µM. In addition, the TGI in assay [7] turned out to be 5.4 µM; in [8], 3.17 µM; in [9] it was 3.23 µM; in assay [10], 5.62 µM.

On to `O=C1OC(C(O)CO)C(O)=C1O` (configuration not stated), for which the GI50 in assay [1] was 2190 µM and 2510 µM; in assay [2], 2420 µM and 2940 µM; in assay [3], 1790 µM and > 3990 µM; in assay [4], 340 µM and 426 µM; in assay [5], 1840 µM and 1970 µM; in assay [6], 1790 µM and 1730 µM. Also, the GI50 in assay [7] is 2120 µM and 1960 µM; in assay [8], 6830 µM and > 4590 µM; in assay [9], 1560 µM and > 4190 µM; in assay [10] it was 9040 µM and > 4840 µM. Besides, the TGI in [1] is 4330 µM and > 5710 µM; in assay [2] it was 4800 µM and 6210 µM; in [3], 3270 µM and > 5430 µM; in assay [4], 1000 µM and 1460 µM; in [5] it was 3520 µM and 3940 µM; in [6] it was 3400 µM and 3310 µM. Moreover, the TGI is 4020 µM in assay [7]; more than 10000 µM in [8]; 2910 µM and > 5600 µM in assay [9]; more than 10000 µM in assay [10].

As for `CCN(CC)CCCCCCNc1cc(OC)cc2cccnc12`, the GI50 was 17.4 µM in assay [1]; 2.06 µM in assay [2]; 3.15 µM in assay [3]; 1.74 µM in assay [4]; 2.5 µM in assay [5]; 6.74 µM in assay [6]. In addition, the GI50 is 1.72 µM in [7], 11.4 µM in [8], 2.53 µM in [9] and 16.1 µM in assay [10]. Moreover, the TGI in assay [1] turned out to be 33.6 µM; in assay [2], 5.11 µM; in assay [3], 10.5 µM; in assay [4], 3.31 µM; in [5], 9.55 µM; in assay [6] it was 22.7 µM. In addition, the TGI in assay [7] worked out at 3.83 µM; in assay [8] it was 26.5 µM; in [9] it was 6.34 µM; in assay [10], 30.8 µM.

Consider `COc1ccc(-c2nc(/C=C3\SC(=NCc4ccccc4)NC3=O)c3ccccn23)cc1`, for which the GI50 in [1] is 1.38 µM; in assay [2] it was 1.54 µM; in [3] it was 0.846 µM; in [4], 0.964 µM; in [5], 1.39 µM; in [6], 1.5 µM. In addition, the GI50 in [7] was 0.377 µM; in [8] it was 2.25 µM; in assay [9] it was 1.51 µM; in assay [10], 2.31 µM. Also, the TGI was found to be 3.1 µM in [1]; 3 µM in assay [2]; 2.3 µM in assay [3]; 2.72 µM in assay [4]; 2.84 µM in [5]; 2.45 µM in assay [6]. Further, the TGI in assay [7] worked out at 1.57 µM; in assay [8], 7.62 µM; in assay [9], 3.19 µM; in [10] it was 5.24 µM.
